Test results: PubChem BioAssay AID248 (DTP/NCI, 2004)
Several values for one entry are separate records, joined by “and”; a condition that tells them apart may be missing. Equal values may be shown once. Toxic doses and inconclusive results are not listed. No stated cut-off is given here; in the data, active means T/C of 150% or more; inactive means T/C below 125%.

System: L1210 leukemia ip in BDF1 mice, survival T/C
Experiment: NCI In Vivo Anticancer Drug Screen. Data for tumor model L1210 Leukemia (intraperitoneal) in B6D2F1 (BDF1) mice
Conditions: endpoint: mean survival time, higher = longer survival
Summary of the method: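 Ratio derived from survival: compound-dosed mice over vehicle-dosed mice, all bearing a transplantable tumor.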

[1] = dose: 100.0 mg/kg/injection, schedule: Q01DX001 (ip), vehicle: saline
[2] = dose: 200.0 mg/kg/injection, schedule: Q01DX001 (ip), vehicle: saline
[3] = dose: 400.0 mg/kg/injection, schedule: Q01DX001 (ip), vehicle: saline
[4] = dose: 50.0 mg/kg/injection, schedule: Q01DX009 (ip), vehicle: saline
[5] = dose: 100.0 mg/kg/injection, schedule: Q01DX009 (ip), vehicle: saline
[6] = dose: 100.0 mg/kg/injection, schedule: Q04DX003 (ip), vehicle: Klucel (hydroxypropylcellulose) (HPC)
[7] = dose: 200.0 mg/kg/injection, schedule: Q04DX003 (ip), vehicle: Klucel (hydroxypropylcellulose) (HPC)
[8] = dose: 400.0 mg/kg/injection, schedule: Q04DX003 (ip), vehicle: Klucel (hydroxypropylcellulose) (HPC)
[9] = dose: 100.0 mg/kg/injection, schedule: Q01DX009 (ip), vehicle: saline with Tween-80
[10] = dose: 200.0 mg/kg/injection, schedule: Q01DX009 (ip), vehicle: saline with Tween-80
[11] = dose: 400.0 mg/kg/injection, schedule: Q01DX009 (ip), vehicle: saline with Tween-80
[12] = dose: 50.0 mg/kg/injection, schedule: Q01DX001 (ip), vehicle: saline
[13] = dose: 100.0 mg/kg/injection, schedule: Q01DX001 (ip), vehicle: Klucel (hydroxypropylcellulose) (HPC)
[14] = dose: 200.0 mg/kg/injection, schedule: Q01DX001 (ip), vehicle: Klucel (hydroxypropylcellulose) (HPC)
[15] = dose: 400.0 mg/kg/injection, schedule: Q01DX001 (ip), vehicle: Klucel (hydroxypropylcellulose) (HPC)
[16] = dose: 12.5 mg/kg/injection, schedule: Q01DX001 (ip), vehicle: saline with Tween-80
[17] = dose: 25.0 mg/kg/injection, schedule: Q01DX001 (ip), vehicle: saline with Tween-80
[18] = dose: 100.0 mg/kg/injection, schedule: Q01DX001 (ip), vehicle: saline with Tween-80
[19] = dose: 200.0 mg/kg/injection, schedule: Q01DX001 (ip), vehicle: saline with Tween-80
[20] = dose: 400.0 mg/kg/injection, schedule: Q01DX001 (ip), vehicle: saline with Tween-80
[21] = dose: 50.0 mg/kg/injection, schedule: Q01DX009 (ip), vehicle: saline with Tween-80

Measured: T/C

CCOC(=O)C1(C(=O)OCC)COC(=O)C2(CC)OC21 (centres undefined)
inactive: [1] 107 % of control | [2] 98 % of control | [3] 109 % of control

O=[n+]1ccn2ccccc2c1
inactive: [4] 100 % of control | [5] 102 % of control | [6] 98 % of control | [7] 104 % of control

O=C(O)c1ccc2c([N+](=O)[O-])cccc2n1
inactive: dose: 100.0 mg/kg/injection, schedule: Q01DX009 (ip), vehicle: Klucel (hydroxypropylcellulose) (HPC) 100 % of control | [6] 96 % of control | dose: 200.0 mg/kg/injection, schedule: Q01DX009 (ip), vehicle: Klucel (hydroxypropylcellulose) (HPC) 97 % of control | [7] 107 % of control | [8] 93 % of control

CN1CCCC1c1ccc(Br)cc1 (centres undefined)
inactive: dose: 100.0 mg/kg/injection, schedule: Q01DX001 (ip), vehicle: acetone 95 % of control

CCCCC(=O)Nc1cccc(O)c1
inactive: [9] 90 % of control | [10] 93 % of control | [11] 107 % of control

CCN(CC)Cc1cc(Nc2c(C)cnc3cc(Cl)ccc23)ccc1O
inactive: dose: 25.0 mg/kg/injection, schedule: Q01DX009 (ip), vehicle: saline 94 % of control | [4] 90 % of control

Cc1ncc(CO)c2c1OC(C)(C)OC2
inactive: [12] 97 % of control | [1] 100 % of control | [2] 103 % of control | [3] 100 % of control

CCC(CC)C(O)C(C)C(C)O (centres undefined)
inactive: dose: 100.0 mg/kg/injection, schedule: Q04DX003 (ip), vehicle: saline with Tween-80 97 % of control | dose: 200.0 mg/kg/injection, schedule: Q04DX003 (ip), vehicle: saline with Tween-80 113 % of control | dose: 400.0 mg/kg/injection, schedule: Q04DX003 (ip), vehicle: saline with Tween-80 97 % of control

CC(=O)OCC1OC(n2cnc3c(C)nc(F)nc32)C(OC(C)=O)C1OC(C)=O (centres undefined)
inactive: dose: 50.0 mg/kg/injection, schedule: Q01DX001 (ip), vehicle: other 105 % of control | dose: 100.0 mg/kg/injection, schedule: Q01DX001 (ip), vehicle: other 113 % of control | dose: 200.0 mg/kg/injection, schedule: Q01DX001 (ip), vehicle: other 103 % of control | dose: 400.0 mg/kg/injection, schedule: Q01DX001 (ip), vehicle: other 108 % of control

COc1ccc(/C=N/O)cc1
inactive: [12] 100 % of control | [1] 93 % of control | [2] 100 % of control | [3] 96 % of control

COC(=O)CS(=O)(=O)C(C)(C)C(=O)c1ccccc1
inactive: dose: 37.5 mg/kg/injection, schedule: Q01DX009 (ip), vehicle: saline 96 % of control | dose: 75.0 mg/kg/injection, schedule: Q01DX009 (ip), vehicle: saline 92 % of control | dose: 150.0 mg/kg/injection, schedule: Q01DX009 (ip), vehicle: saline 100 % of control | dose: 300.0 mg/kg/injection, schedule: Q01DX009 (ip), vehicle: saline 94 % of control

O=[As](O)(O)c1ccc(OCCO)cc1
inactive: [5] 96 % of control | dose: 200.0 mg/kg/injection, schedule: Q01DX009 (ip), vehicle: saline 96 % of control

Cc1csc[n+]1CCS(=O)(=O)[O-]
inactive: [1] 95 % of control | [2] 97 % of control | [3] 97 % of control

CC12CCC3C4CCC(O)CC4=CCC3C1CCC2=O (centres undefined)
inactive: dose: 50.0 mg/kg/injection, schedule: Q01DX001 (ip), vehicle: Klucel (hydroxypropylcellulose) (HPC) 107 % of control | [13] 104 % of control and 107 % of control | [14] 92 % of control | [15] 104 % of control

CCOc1ncnc2c1nnn2C1OC(CO)C(O)C1O (centres undefined)
inactive: [16] 105 % of control | [17] 107 % of control | dose: 50.0 mg/kg/injection, schedule: Q01DX001 (ip), vehicle: saline with Tween-80 105 % of control | [18] 104 % of control | [19] 105 % of control | [20] 108 % of control

CCn1cnc2c(C(F)(F)F)nc(N)nc21
inactive: dose: 12.5 mg/kg/injection, schedule: Q01DX001 (ip), vehicle: acetone 94 % of control | dose: 12.5 mg/kg/injection, schedule: Q01DX009 (ip), vehicle: saline with Tween-80 96 % of control | dose: 12.5 mg/kg/injection, schedule: Q04DX003 (ip), vehicle: saline 103 % of control | dose: 25.0 mg/kg/injection, schedule: Q01DX001 (ip), vehicle: acetone 94 % of control | dose: 25.0 mg/kg/injection, schedule: Q01DX009 (ip), vehicle: saline with Tween-80 101 % of control | dose: 25.0 mg/kg/injection, schedule: Q04DX003 (ip), vehicle: saline 87 % of control | dose: 50.0 mg/kg/injection, schedule: Q01DX001 (ip), vehicle: acetone 101 % of control | [21] 95 % of control | dose: 50.0 mg/kg/injection, schedule: Q04DX003 (ip), vehicle: saline 97 % of control

O=[N+]([O-])c1cccc(S(=O)(=O)NNc2cc(C(F)(F)F)ccc2Cl)c1
inactive: [13] 93 % of control | [6] 92 % of control | [14] 94 % of control | [7] 87 % of control | [15] 98 % of control | [8] 100 % of control

CCc1cc(C)cc(OC(=O)Nc2cc(Cl)ccc2OC)c1
inactive: [18] 104 % of control | [9] 95 % of control | dose: 100.0 mg/kg/injection, schedule: Q04DX002 (ip), vehicle: saline with Tween-80 94 % of control and 95 % of control | [19] 93 % of control | [10] 93 % of control | dose: 200.0 mg/kg/injection, schedule: Q04DX002 (ip), vehicle: saline with Tween-80 95 % of control and 90 % of control | [20] 95 % of control | [11] 119 % of control | dose: 400.0 mg/kg/injection, schedule: Q04DX002 (ip), vehicle: saline with Tween-80 95 % of control and 86 % of control

CC1=C(OS(=O)(=O)c2ccc(C)cc2)CCCC1=O
inactive: [21] 100 % of control | [9] 100 % of control | [10] 88 % of control

O=CNNCc1c[nH]c(=O)[nH]c1=O
inactive: [12] 96 % of control | [1] 96 % of control | [2] 96 % of control | [3] 98 % of control

Cc1nc(N)[nH]c(=O)c1CCCN(c1ccccc1)S(=O)(=O)c1ccc([N+](=O)[O-])cc1
inactive: dose: 6.25 mg/kg/injection, schedule: Q01DX001 (ip), vehicle: saline with Tween-80 104 % of control | [16] 100 % of control | [17] 98 % of control

CC1(C)CN1Sc1ccc([N+](=O)[O-])cc1 (centres undefined)
inactive: dose: 25.0 mg/kg/injection, schedule: Q04DX002 (ip), vehicle: Klucel (hydroxypropylcellulose) (HPC) 107 % of control | dose: 50.0 mg/kg/injection, schedule: Q04DX002 (ip), vehicle: Klucel (hydroxypropylcellulose) (HPC) 103 % of control | dose: 100.0 mg/kg/injection, schedule: Q04DX002 (ip), vehicle: Klucel (hydroxypropylcellulose) (HPC) 96 % of control and 107 % of control

Cc1ccnc(N)c1
inactive: dose: 12.5 mg/kg/injection, schedule: Q04DX002 (ip), vehicle: saline 114 % of control | dose: 25.0 mg/kg/injection, schedule: Q04DX002 (ip), vehicle: saline 102 % of control | dose: 50.0 mg/kg/injection, schedule: Q04DX002 (ip), vehicle: saline 96 % of control

[Cl][Pt][Cl].c1ccc([PH+](c2ccccc2)C2CCCCC2)cc1.c1ccc([PH+](c2ccccc2)C2CCCCC2)cc1
inactive: dose: 6.25 mg/kg/injection, schedule: Q04DX003 (ip), vehicle: water 96 % of control | dose: 12.5 mg/kg/injection, schedule: Q04DX003 (ip), vehicle: water 98 % of control | dose: 25.0 mg/kg/injection, schedule: Q04DX003 (ip), vehicle: water 96 % of control | dose: 50.0 mg/kg/injection, schedule: Q04DX003 (ip), vehicle: water 98 % of control

Clc1ccc(C(Cl)c2ccc(Cl)cc2)cc1
inactive: [6] 105 % of control | [7] 107 % of control | [8] 107 % of control
